Laboratory results from US20260224588A1, “BENZODIAZEPINONE-DERIVED INHIBITORS OF EGFR AND HER2” (The Research Foundation for the State University of New York, priority 2023, published 2026).

Assays:
Assay in all cases: KINOMEscan
Format in all cases: binding
Settings in all cases: 1 μM of compound 4; read-out: POC
STK36 = target: T1, STK36 (Homo sapiens, UniProt Q9NRP7)
T1 construct: purchased Eurofins DiscoverX (KINOMEscan service)

GRK1 = target: T2, GRK1 (Homo sapiens, UniProt Q15835)
T2 construct: purchased Eurofins DiscoverX Corporation
T2 sequence (Q15835 whole entry): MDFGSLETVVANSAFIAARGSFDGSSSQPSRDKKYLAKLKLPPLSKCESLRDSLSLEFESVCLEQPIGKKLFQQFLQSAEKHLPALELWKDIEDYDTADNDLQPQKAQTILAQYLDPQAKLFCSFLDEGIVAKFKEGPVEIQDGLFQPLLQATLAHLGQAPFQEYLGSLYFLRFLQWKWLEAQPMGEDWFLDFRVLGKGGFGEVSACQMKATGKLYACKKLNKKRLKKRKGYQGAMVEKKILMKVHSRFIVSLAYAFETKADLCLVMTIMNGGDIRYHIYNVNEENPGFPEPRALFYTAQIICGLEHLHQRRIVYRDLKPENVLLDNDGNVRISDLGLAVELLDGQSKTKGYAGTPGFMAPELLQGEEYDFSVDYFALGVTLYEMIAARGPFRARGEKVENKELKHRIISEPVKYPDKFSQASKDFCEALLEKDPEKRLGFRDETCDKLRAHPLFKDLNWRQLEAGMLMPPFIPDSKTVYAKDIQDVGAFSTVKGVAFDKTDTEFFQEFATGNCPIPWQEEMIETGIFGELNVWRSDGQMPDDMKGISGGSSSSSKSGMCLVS

SRPK2 = target: T3, SRPK2 (Homo sapiens, UniProt P78362)
T3 construct: purchased Eurofins DiscoverX (KINOMEscan service)

GAK = target: T4, GAK (Homo sapiens, UniProt O14976)
T4 construct: purchased Eurofins DiscoverX Corporation

ERK4 = target: T5, ERK4 (Homo sapiens, UniProt P31152)
T5 construct: purchased Eurofins DiscoverX Corporation

YES = target: T6, YES (Homo sapiens, UniProt P07947)
T6 construct: purchased Eurofins DiscoverX

CDK11 = CDK11 (Homo sapiens, UniProt Q9BWU1)
Sequence of CDK11 (Q9BWU1 whole entry): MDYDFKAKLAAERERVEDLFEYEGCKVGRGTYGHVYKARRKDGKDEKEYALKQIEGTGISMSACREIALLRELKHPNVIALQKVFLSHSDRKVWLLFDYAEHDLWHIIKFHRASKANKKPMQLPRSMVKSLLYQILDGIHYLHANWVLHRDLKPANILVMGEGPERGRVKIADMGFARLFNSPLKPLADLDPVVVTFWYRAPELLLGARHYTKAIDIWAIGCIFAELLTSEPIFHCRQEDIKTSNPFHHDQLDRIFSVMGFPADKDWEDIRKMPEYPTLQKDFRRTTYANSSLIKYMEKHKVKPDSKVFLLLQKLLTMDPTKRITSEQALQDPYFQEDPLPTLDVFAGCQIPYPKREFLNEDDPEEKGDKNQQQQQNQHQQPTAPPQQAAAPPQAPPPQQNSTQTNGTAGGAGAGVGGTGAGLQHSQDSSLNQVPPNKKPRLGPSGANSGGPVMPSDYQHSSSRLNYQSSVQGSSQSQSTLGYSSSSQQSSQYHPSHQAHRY

TLK1 = target: T7, TLK1 (Homo sapiens, UniProt Q9UKI8)
T7 construct: purchased Eurofins DiscoverX Corporation

CDKL5 = CDKL5 (Homo sapiens, UniProt O76039)
JNK1 = JNK1 (Homo sapiens, UniProt P45983)
Sequence of JNK1 (P45983 whole entry): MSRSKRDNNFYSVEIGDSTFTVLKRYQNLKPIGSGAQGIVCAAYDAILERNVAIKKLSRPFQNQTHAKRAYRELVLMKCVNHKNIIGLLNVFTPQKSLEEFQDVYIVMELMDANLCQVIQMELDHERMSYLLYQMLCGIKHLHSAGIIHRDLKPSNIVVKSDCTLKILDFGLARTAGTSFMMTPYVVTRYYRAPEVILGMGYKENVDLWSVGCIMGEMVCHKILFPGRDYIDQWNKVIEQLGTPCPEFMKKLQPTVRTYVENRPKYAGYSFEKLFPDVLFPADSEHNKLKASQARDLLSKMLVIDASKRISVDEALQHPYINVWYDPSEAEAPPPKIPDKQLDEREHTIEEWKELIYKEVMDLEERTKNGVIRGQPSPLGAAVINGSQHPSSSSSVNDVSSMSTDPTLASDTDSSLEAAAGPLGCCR

PIK3CB = PIK3CB (Homo sapiens, UniProt P42338)
Sequence of PIK3CB (P42338 whole entry): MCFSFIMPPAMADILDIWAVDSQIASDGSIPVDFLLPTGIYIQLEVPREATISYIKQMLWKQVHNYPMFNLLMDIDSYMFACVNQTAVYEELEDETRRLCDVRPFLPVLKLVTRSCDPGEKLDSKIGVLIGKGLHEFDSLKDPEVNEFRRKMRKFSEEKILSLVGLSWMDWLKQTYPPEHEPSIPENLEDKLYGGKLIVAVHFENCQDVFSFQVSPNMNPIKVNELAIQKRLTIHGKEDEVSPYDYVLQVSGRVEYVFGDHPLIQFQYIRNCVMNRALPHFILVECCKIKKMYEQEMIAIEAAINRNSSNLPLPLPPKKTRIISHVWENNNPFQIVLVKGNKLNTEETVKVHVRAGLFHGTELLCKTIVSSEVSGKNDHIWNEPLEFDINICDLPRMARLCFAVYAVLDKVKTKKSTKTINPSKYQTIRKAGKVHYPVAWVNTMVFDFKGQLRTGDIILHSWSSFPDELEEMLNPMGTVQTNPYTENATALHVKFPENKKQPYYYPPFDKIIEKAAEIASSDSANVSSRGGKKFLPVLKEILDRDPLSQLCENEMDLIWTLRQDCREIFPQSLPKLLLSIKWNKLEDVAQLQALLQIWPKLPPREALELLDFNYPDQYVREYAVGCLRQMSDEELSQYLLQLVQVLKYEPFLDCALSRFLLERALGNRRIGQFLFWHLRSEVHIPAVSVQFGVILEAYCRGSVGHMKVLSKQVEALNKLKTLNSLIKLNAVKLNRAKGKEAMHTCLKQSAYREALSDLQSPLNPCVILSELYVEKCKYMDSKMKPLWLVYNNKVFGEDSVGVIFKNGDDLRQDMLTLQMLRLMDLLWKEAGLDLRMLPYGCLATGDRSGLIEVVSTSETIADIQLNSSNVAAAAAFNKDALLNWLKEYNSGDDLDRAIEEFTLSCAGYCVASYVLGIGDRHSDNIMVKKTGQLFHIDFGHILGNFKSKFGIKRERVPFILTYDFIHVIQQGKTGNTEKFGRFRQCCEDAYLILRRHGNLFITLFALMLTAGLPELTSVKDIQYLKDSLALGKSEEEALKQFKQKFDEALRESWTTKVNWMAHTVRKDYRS

AKT3 = AKT3 (Homo sapiens, UniProt Q9Y243)
ZAP70 = target: T8, ZAP70 (Homo sapiens, UniProt P43403)
T8 construct: purchased Eurofins DiscoverX

TAK1 = target: T9, TAK1 (Homo sapiens, UniProt O43318)
T9 construct: purchased Eurofins DiscoverX Corporation

MRCKB = MRCKB (Homo sapiens, UniProt Q9Y5S2)
PIM1 = PIM1 (Homo sapiens, UniProt P11309)
TGFBR1 = target: T10, TGFBR1 (Homo sapiens, UniProt P36897)
T10 construct: purchased Eurofins DiscoverX Corporation

CAMK2D = CAMK2D (Homo sapiens, UniProt Q13557)
ERBB2 = target: T11, ERBB2 (Homo sapiens, UniProt P04626)
T11 construct: purchased Eurofins DiscoverX Corporation

CSNK1A1L = CSNK1A1L (Homo sapiens, UniProt Q8N752)
MEK1 = MEK1 (Homo sapiens, UniProt Q02750)
Sequence of MEK1 (Q02750 whole entry): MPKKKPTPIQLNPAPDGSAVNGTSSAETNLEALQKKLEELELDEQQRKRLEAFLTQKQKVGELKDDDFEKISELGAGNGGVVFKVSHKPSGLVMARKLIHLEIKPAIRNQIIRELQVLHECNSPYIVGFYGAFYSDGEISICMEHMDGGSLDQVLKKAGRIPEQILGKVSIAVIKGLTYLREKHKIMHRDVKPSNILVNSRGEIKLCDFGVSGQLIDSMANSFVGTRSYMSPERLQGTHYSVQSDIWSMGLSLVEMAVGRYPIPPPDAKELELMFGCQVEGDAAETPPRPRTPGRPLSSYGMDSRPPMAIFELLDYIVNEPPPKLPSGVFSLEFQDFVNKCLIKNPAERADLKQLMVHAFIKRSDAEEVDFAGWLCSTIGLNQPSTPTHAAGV

EGFR(G719C) = target: T12, EGFR(G719C) (Homo sapiens, UniProt P00533, G719C)
T12 construct: purchased Eurofins DiscoverX (KINOMEscan service)

PRP4 = PRP4 (Homo sapiens, UniProt Q13523)
SNARK = target: T13, SNARK (Homo sapiens, UniProt Q9H093)
T13 construct: purchased Eurofins DiscoverX (KINOMEscan service)

CLK2 = CLK2 (Homo sapiens, UniProt P49760)
RAF1 = target: T14, RAF1 (Homo sapiens, UniProt P04049)
T14 construct: purchased Eurofins DiscoverX Corporation (KINOMEscan screening service)

KIT(V559D + V654A) = KIT(V559D + V654A) (Homo sapiens, UniProt P10721, V559D/V654A)
Sequence of KIT(V559D + V654A) (P10721 26-976 V559D/V654A): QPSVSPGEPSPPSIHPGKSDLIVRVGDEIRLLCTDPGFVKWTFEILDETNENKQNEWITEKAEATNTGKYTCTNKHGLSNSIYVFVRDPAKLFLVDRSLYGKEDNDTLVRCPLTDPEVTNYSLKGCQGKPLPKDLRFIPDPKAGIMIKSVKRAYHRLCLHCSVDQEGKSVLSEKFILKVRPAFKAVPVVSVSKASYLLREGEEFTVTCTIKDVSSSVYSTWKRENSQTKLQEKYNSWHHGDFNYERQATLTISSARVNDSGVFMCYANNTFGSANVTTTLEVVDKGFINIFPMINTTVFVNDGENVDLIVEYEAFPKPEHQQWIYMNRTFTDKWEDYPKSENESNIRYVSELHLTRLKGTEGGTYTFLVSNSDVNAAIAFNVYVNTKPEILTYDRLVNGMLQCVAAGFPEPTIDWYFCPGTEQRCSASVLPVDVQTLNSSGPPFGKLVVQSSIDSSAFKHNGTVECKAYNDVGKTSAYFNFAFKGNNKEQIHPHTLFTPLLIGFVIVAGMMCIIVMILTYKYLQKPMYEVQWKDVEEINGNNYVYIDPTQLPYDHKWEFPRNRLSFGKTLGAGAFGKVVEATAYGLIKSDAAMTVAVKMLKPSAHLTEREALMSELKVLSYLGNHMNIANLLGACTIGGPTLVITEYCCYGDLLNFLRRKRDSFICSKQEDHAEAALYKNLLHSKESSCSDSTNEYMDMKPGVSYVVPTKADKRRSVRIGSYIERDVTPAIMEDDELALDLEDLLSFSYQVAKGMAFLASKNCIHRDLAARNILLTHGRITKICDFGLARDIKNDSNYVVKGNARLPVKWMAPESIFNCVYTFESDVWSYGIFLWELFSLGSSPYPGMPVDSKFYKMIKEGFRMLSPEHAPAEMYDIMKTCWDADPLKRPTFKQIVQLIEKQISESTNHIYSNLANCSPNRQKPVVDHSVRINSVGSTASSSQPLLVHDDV

EGFR(L858R) = EGFR(L858R) (Homo sapiens, UniProt P00533, L858R); design: purchased Eurofins DiscoverX (KINOMEscan service)
TNK1 = target: T15, TNK1 (Homo sapiens, UniProt Q13470)
T15 construct: purchased Eurofins DiscoverX Corporation
T15 sequence (Q13470 whole entry): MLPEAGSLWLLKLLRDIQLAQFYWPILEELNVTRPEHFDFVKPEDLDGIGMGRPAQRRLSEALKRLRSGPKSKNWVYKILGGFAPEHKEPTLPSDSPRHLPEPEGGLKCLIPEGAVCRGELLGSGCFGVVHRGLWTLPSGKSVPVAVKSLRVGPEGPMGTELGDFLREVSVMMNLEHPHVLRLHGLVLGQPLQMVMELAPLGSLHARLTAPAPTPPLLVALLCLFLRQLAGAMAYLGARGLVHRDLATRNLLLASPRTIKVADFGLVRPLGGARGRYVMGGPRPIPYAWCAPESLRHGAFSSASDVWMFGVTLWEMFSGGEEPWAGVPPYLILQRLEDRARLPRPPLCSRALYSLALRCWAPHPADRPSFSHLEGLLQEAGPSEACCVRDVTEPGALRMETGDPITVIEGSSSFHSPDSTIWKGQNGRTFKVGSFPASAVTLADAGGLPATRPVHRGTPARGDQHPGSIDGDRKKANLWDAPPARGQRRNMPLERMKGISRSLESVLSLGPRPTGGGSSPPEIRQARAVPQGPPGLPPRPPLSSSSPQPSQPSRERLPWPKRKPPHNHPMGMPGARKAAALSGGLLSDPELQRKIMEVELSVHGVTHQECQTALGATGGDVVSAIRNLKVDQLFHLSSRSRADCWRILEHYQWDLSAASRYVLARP

EIF2AK1 = target: T16, EIF2AK1 (Homo sapiens, UniProt Q9BQI3)
T16 construct: purchased Eurofins DiscoverX (KINOMEscan service)

NEK7 = target: T17, NEK7 (Homo sapiens, UniProt Q8TDX7)
T17 construct: purchased Eurofins DiscoverX Corporation (KINOMEscan)

EGFR(E746-A750del) = target: T18, EGFR(E746-A750del) (Homo sapiens, UniProt P00533, DEL746-750)
T18 construct: purchased Eurofins DiscoverX (KINOMEscan service)

SYK = target: T19, SYK (Homo sapiens, UniProt P43405)
T19 construct: purchased Eurofins DiscoverX Corporation

p38-gamma = target: T20, p38-gamma (Homo sapiens, UniProt P53778)
T20 construct: purchased Eurofins DiscoverX Corporation (KINOMEscan)

LKB1 = LKB1 (Homo sapiens, UniProt Q15831)
PHKG2 = PHKG2 (Homo sapiens, UniProt P15735)
Sequence of PHKG2 (P15735 whole entry): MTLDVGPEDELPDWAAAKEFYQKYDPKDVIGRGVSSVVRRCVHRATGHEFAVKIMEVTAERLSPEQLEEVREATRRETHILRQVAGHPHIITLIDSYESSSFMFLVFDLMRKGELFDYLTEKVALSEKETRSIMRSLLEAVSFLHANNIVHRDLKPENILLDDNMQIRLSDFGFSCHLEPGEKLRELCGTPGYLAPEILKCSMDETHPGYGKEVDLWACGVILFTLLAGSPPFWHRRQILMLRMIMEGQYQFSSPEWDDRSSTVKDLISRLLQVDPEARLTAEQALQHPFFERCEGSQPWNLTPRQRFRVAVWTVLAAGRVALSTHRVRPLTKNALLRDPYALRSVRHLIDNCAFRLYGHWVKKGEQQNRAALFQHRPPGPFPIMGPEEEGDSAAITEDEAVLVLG

AXL = AXL (Homo sapiens, UniProt P30530)
TSSK3 = target: T21, TSSK3 (Homo sapiens, UniProt Q96PN8)
T21 construct: purchased Eurofins DiscoverX Corporation

DDR2 = DDR2 (Homo sapiens, UniProt Q16832)

Question: What does the source list for C=CC(=O)Nc1ccc(OC)c(Nc2cc(-c3[nH]c(CC)nc3-c3cccc(NC(=O)c4cccc5c4NC(=O)c4ccccc4N5)c3)ccn2)c1 [Compound 4, N-(3-(5-(2-((5-Acrylamido-2-methoxyphenyl)amino)pyridin-4-yl)-2-ethyl-1H-imidazol-4-yl)phenyl)-11-oxo-10,11-dihydro-5H-dibenzo[b,e][1,4]diazepine-9-carboxamide]?
Answer: remaining binding at 1 µM (STK36): 30%; remaining binding at 1 µM (GRK1): 94%; remaining binding at 1 µM (SRPK2): 100%; remaining binding at 1 µM (GAK): 16%; remaining binding at 1 µM (ERK4): 100%; remaining binding at 1 µM (YES): 20%; remaining binding at 1 µM (CDK11): 100%; remaining binding at 1 µM (TLK1): 87%; remaining binding at 1 µM (CDKL5): 98%; remaining binding at 1 µM (JNK1): 85%; remaining binding at 1 µM (PIK3CB): 90%; remaining binding at 1 µM (AKT3): 100%; remaining binding at 1 µM (ZAP70): 97%; remaining binding at 1 µM (TAK1): 95%; remaining binding at 1 µM (MRCKB): 1.7%; remaining binding at 1 µM (PIM1): 94%; remaining binding at 1 µM (TGFBR1): 75%; remaining binding at 1 µM (CAMK2D): 88%; remaining binding at 1 µM (ERBB2): 18%; remaining binding at 1 µM (CSNK1A1L): 91%; remaining binding at 1 µM (MEK1): 100%; remaining binding at 1 µM (EGFR(G719C)): 6.5%; remaining binding at 1 µM (PRP4): 46%; remaining binding at 1 µM (SNARK): 100%; remaining binding at 1 µM (CLK2): 63%; remaining binding at 1 µM (RAF1): 73%; remaining binding at 1 µM (KIT(V559D + V654A)): 93%; remaining binding at 1 µM (EGFR(L858R)): 5%; remaining binding at 1 µM (TNK1): 22%; remaining binding at 1 µM (EIF2AK1): 75%; remaining binding at 1 µM (NEK7): 86%; remaining binding at 1 µM (EGFR(E746-A750del)): 13%; remaining binding at 1 µM (SYK): 63%; remaining binding at 1 µM (p38-gamma): 100%; remaining binding at 1 µM (LKB1): 100%; remaining binding at 1 µM (PHKG2): 73%; remaining binding at 1 µM (AXL): 98%; remaining binding at 1 µM (TSSK3): 100%; remaining binding at 1 µM (DDR2): 100%
